The values that follow are results of earlier work, collected in patent publication US20070009589A1, “EXTENDED RELEASE COMPOSITIONS” (priority 2005, published 2007).

For data set [1] the following is noted: in water.

A word on the Log P: it is a log measure of how a compound divides between an organic and an aqueous phase. On to `COCCc1ccc(OCC(O)CNC(C)C)cc1` (stereo not drawn) [Metoprolol], for which the “Log P” value is 2.48. For the same compound, in data set [1], the water solubility result was “low water solubility”.

On to `COCCc1ccc(OCC(O)CNC(C)C)cc1` (racemic) [Metoprolol succinate, (±)-1-(isopropylamino)-3-[p-(2-methoxyethyl)phenoxy]-2-propanol succinate (2:1)], for which the water solubility entry in data set [1] is recorded as “freely soluble in water”.
